From patent publication US5108916A, “Process for stereoselectively hydrolyzing, transesterifying or esterifying with immobilized isozyme of lipase from Candida rugosa” (priority 1989, dated 1992)
Several values for one entry are separate records, joined by “and”; a condition that tells them apart may be missing. Equal entries are not always repeated. Where two headings read alike, the source gives them in different places.

Columns and labels:
[1] = test system: Lipase MY; experiment: Product inhibition of Lipase MY; format: biochemical, Candida rugosa; details: 0.5 equivalents at the start of the reaction
Procedure: Two hydrolysis reactions were run to determine the effect of methanol, produced as a by-product of the hydrolysis of HPPA-Me, on the activity of Lipase MY. (R,S)-HPPA-Me, 1.5 moles, 1 L of 1 M NH4 OAc, pH 6.5, 150 ml toluene, and 2 g Lipase MY were placed in flasks with and without 0.75 moles of methanol. The mixtures were shaken gently and sampled at various times to determine the concentrations of each of the stereoisomers of HPPA which were produced.
To determine the effect of the (R)-HPPA produced during the hydrolysis of (R,S)-HPPA-Me on the activity of Lipase MY, a series of three experiments were performed. Ammonium acetate, 200 ml, 0.04 M, pH 7.0, was combined with 30 ml of toluene, 40 mmoles (R,S)-HPPA-Me, 25 mg Lipase MY, and 0, 30, or 100 mM (R)-HPPA. The reactions were shaken gently for 136 hours and sampled at various times to determine the concentrations of each of the stereoisomers of HPPA which were produced.

[2] = test system: Lipase MY; experiment: Effect of reducing agents on immobilized Lipase MY in the presence of HPPA; format: biochemical, Candida rugosa; details: for prevention of loss of enzyme activity: repeated batches, Tables 3-5
[3] = test system: Lipase MY; experiment: Two phase Lipase MY hydrolysis of HPPA-Me in organic solvent/water mixtures; format: biochemical, Candida rugosa
Procedure: A. 75% organic solvent/25% aqueous buffer--Fifty milligrams of R,S-HPPA-Me was combined in 10 ml Scintillation vial with 7.5 ml of organic solvent, 2.5 ml of 50 mM phosphate buffer pH 6.0, and 5 mg Lipase MY. The reactions were placed on shaker and shaken for a period of 0-43 hours with samples being taken at various times.
B. 25% organic solvent/75% aqueous buffer--Fifty milligrams of R,S-HPPA-Me was combined, in 10 ml Scintillation vial with 2.5 ml of organic solvent, 7.5 ml 50mM phosphate buffer (pH 6.8), and 5 mg Lipase MY. The reactions were shaken for a period of 0-143 hours with samples being taken at various time points.
The data in Table 2 represents the % conversion and % R-HPPA produced using the indicated organic solvents in a two-phase system wherein 75% […] of the total vehicle (solvent) was water and the balance (25%) was organic solvents.

[4] = test system: CSC-2; experiment: Effect of additives and solvents on hydrolysis of ketoprofen monoglyceride by CSC-2; format: biochemical, Candida rugosa; details: solvent/buffer 1:1 two phase
Procedure: Hydrolysis of ketoprofen-monoglyceride (50mg) was carried out in various DMF-100mM (NH4)H2 PO4 buffer (pH 5.5) mixtures. In each flask a solution of ketoprofen monoglyceride (50mg) in DMF (200ul) was added. DMF was added followed by 100mM (NH4)H2 PO4 buffer. […] After 22 hours, 2%, 5%, and 10% DMF samples were acidified, extracted with CHCl3 (2×10ml) and analyzed. The other samples were analyzed directly as in Example 18. The acid produced decreases with increasing amount of DMF.
Small amounts of DMF were added to the reaction mixture to increase the solubility of KPG. In all cases 100mM ammonium phosphate buffer (pH 5.5) was used and 2% (v/v) detergents were added and the total volume was 10ml.
The buffer reaction (entry #2 in the table) contained enzyme in buffer (2 ml) and the buffer only (entry #1 in the table) reaction contained no enzyme.
The presence of a surfactant like Tween increases the solubility o lipophilic compounds in water. […] Tween 80 was added to make 1% and 2% solution (v/v). Bovine serum albumin (BSA) (10mg) was added to each of two flasks. A solution of 50mg of ketoprofen monoglyceride in 200ul DMF was added to each. After 20 hours at 250 rpm and 35° C. the reaction mixtures were acidified, extracted and analyzed by the usual HPLC procedure as in Example 18.
Various surfactants were used at 2% of the reaction volume to determine their effect on the enzymatic reaction involving the conversion of ketoprofen monoglyceride (KPG) to ketoprofen (KP). […] Flasks were covered with parafilm and incubated in a 35° C. water bath at 250 rpm, typically overnight. Reactions were stopped by acidification, extracted with CHCl3 (2×10 ml). The %acid and %ee were determined by the method of Example 18. It is to be noted that Hydrophile-Lipophile Balance (HLB) values have no apparent bearing on the ability of the surfactant to enhance the conversion of KPG to KP.
75 mg of KPG (in the absence of DMF) was individually weighed into 50 ml Erlenmeyer flasks. […] 9 ml of 100 mM (NH4)H2 PO4, pH 5.5 buffer was added, and the flasks were placed into a 35° C., 250 rpm water bath incubator for 20 hours. The reactions were acidified, extracted with CHCl3 and examined by HPLC as in Example 18. The %ee was determined as per Example 18.
Various amounts of oleic acid or its esters were added, and the reactions stopped at the times indicated, acidified, extracted with CHCl3 and analyzed as in Example 18.
An experiment was performed as in Example 41, but using 100, 200 and 500 ul of olive oil to determine if it would enhance the rate of conversion of KPG to KP. […] After 20 hours, all reactions were acidified, extracted with CHCl3 and analyzed by HPLC as in Example 18. The results are given below:
50 mg of KPG was weighed into Erlenmeyer flasks. […] Flasks were incubated at 35° C., 250 rpm for 23 hours. The reactions were stopped by acidification, extracted with CHCl3, and analyzed by HPLC as in Example 18. The additive is listed along with its percentage composition of glycerides of oleic acid.
To determine the problems associated with having oleic acid or oleate. esters in the reaction media, the following experiment was performed. […] Flasks were placed in a 35° C. incubator at 250 rpm, and the reactions were sampled by taking 200 ul aliquots at various time points. These aliquots were analyzed by HPLC (ODS-3 RAC column, CH3 OH: 10 mM (NH4)H2 PO4 (60:40) eluant, 4 ml/min, 254 nm detection) to determine the course of reaction. When approximately 40% acid was produced, the reactions were stopped by placing the flasks in the -70° C. freezer. Two extraction procedures were utilized to determine the best method of isolating S-Ketoprofen free of oleic acid. The first (listed as Extraction Procedure I in the following table) involved first making the solution basic (pH 10) with NaOH, then extracting with hexane, then CHCl3.

[5] = Conversion of ketoprofen esters in organic solvent/oleic acid media; format: biochemical
Procedure: To optimize the organic solvent used in the presence of oleic acid a variety of organic solvents were used, along with a variety of ketoprofen esters. In this experiment, 50 mg of ketoprofen esters were weighed into flasks, along with 1 ml of oleic acid and 9 ml of an organic solvent. The flasks were capped and incubated at 35° C., 250 rpm, for 10-26 hours before stopping the reaction by first adding 4 ml CHCl3 to solubilize the substrates and products, then filtering through a 0.2 um Gelman Nylaflo filter. Samples were then diluted in methanol and analyzed by HPLC as in Example 18. The experiment was also performed using 200 ul of oleic acid and 10ml buffer, which was acidified, extracted with CHCl3 and analyzed by HPLC as above.
One ml of oleic acid was added, as was 9 ml of buffer (100 mM (NH4)H2 PO4, pH 5.5) or organic solvent. Flasks were placed into a 35° C. incubator and shaken at 250 rpm for 13 hours. Reaction was stopped by adding 5 ml CHCl3 to solubilize the organic material and filtering the solutions using 0.2 um Gelman Nylaflo membranes to remove the enzyme. Samples were analyzed on an ODS-3 RAC column using CH3 OH:10 mM (NH4)H2PO4 (60:40) as eluant, flow rate 4 ml/min, and detection at 254 nm. %ee was determined by the resolution of diastereomeric amides on the above HPLC system, as per Example 18.

[6] = Solubility of HPPA-Me; format: physicochemical
[7] = KPG 50 mg, 100 mg CSC-2 on silica (279-SD-1), 9 ml solvent (or buffer)/1 ml oleic acid, 13 hours
[8] = 2 mg/ml in 1M HPPA, 4 days, control enzyme 100%, HPPA treated 70.4%

CO [methanol]
decrease in activity of the enzyme against HPPA-Me [1]: 39%

O=S([O-])S(=O)[O-].[Na+].[Na+] [Na2 S2 O4, sodium hydrosulfite]
Relative Activity ([2]; 8 mg/ml, 5760 min): 111% | Relative Activity ([2]; 16 mg/ml, 5760 min): 112% | Conversion (%) of HPPA-Me to HPPA ([2]; Na2S2O4 25 mg, batches as E39): 25% and 21% and 34% and 23% and 29% and 18% and 31% | prevention of loss of enzyme activity [2]: effective at preventing loss of enzyme activity

C1CCCCC1 [cyclohexane]
% R ([3]; solvent 25%, 2.7 hr): 100% | Conversion (ester/acid) ([3]; solvent 25%, 2.7 hr): 35% | % R ([3]; solvent 75%, 2.7 hr): 83% | Conversion (ester/acid) ([3]; solvent 75%, 2.7 hr): 31% | EE of S-acid ([4]; 26 hours): 95% | Relative Rate ([4]; 26 hours, buffer = 100): 185 | % Acid ([5]; KPEG 50 mg, as E212): 29% | % ee S-acid ([5]; KPEG, as E212): 83% | % Acid [5, 7]: 38% | % ee S-acid ([5]; KPG, as E212): 98%

xylenes
% R ([3]; solvent 25%, 5.3 hr): 100% | Conversion (ester/acid) ([3]; solvent 25%, 5.3 hr): 49% | % R ([3]; solvent 75%, 5.36 hr): 89% | Conversion (ester/acid) ([3]; solvent 75%, 5.36 hr): 41% | EE of S-acid ([4]; 26 hours): 81% | Relative Rate ([4]; 26 hours, buffer = 100): 44

COC(=O)C(C)Oc1ccc(O)cc1 (racemic) [HPPA-ME, (R,S)-(+)-methyl-2-(4-hydroxyphenoxy)-propionate]
solubility ([6]; aqueous solution, pH 6.5, read-out: solubility): < 25 mM | Solubility (HPPA-ME) ([6]; in trichlorotrifluoroethane): insoluble | solubility ([6]; organic solvent or mixture, in 1,1,2 trichloroethane, read-out: Solubility (HPPA-ME)): 558 mg/mL | solubility ([6]; organic solvent or mixture, in 1,2-dibromoethane, read-out: Solubility (HPPA-ME)): 566 mg/mL | solubility ([6]; organic solvent or mixture, in carbon tetrachloride, read-out: Solubility (HPPA-ME)): 33 mg/mL | solubility ([6]; organic solvent or mixture, in cumene, read-out: Solubility (HPPA-ME)): 20 mg/mL | solubility ([6]; organic solvent or mixture, in cyclohexane, read-out: Solubility (HPPA-ME)): 66.4 mg/mL | solubility ([6]; organic solvent or mixture, in fluorobenzene, read-out: Solubility (HPPA-ME)): 156 mg/mL | solubility ([6]; organic solvent or mixture, in tetrachloroethylene, read-out: Solubility (HPPA-ME)): 1.4 mg/mL | solubility ([6]; organic solvent or mixture, in toluene, read-out: Solubility (HPPA-ME)): 236 mg/mL

tetrabutylammonium cyanoborohydride [Bu4 N CNBH3]
Relative Activity ([2]; 1m hppa phosphate, pH 6.5, 5760 min, 5760 min): 83% and 81% and 88% and 85%

N[C@@H](CSSC[C@H](N)C(=O)O)C(=O)O [cystine]
Relative Activity [2, 8]: 83% | Relative Activity ([2]; 4 mg/ml): 76% | Relative Activity ([2]; 8 mg/ml, 5760 min): 81% | Relative Activity ([2]; 16 mg/ml, 5760 min): 83% | conversion of HPPA-Me (quantity not headed in Table 5) ([2]; Cystine 2.5 mg, 15 hrs, batch #: 1, 5, 9, 15, 16, 20, 21, 22): 30 and 19 and 17 and 16 and 20 | prevention of loss of enzyme activity [2]: Neither sodium sulfite nor cystine was effective

Cc1ccccc1 [toluene]
% R ([3]; solvent 25%, 2.7 hr): 100% | % R ([3]; solvent 75%, 2.7 hr): 90% | Conversion (ester/acid) ([3]; solvent 75%, 2.7 hr): 25% | EE of S-acid ([4]; 26 hours): 58% | Relative Rate ([4]; 26 hours, buffer = 100): 15

CC(C)c1ccccc1 [cumene]
% R ([3]; solvent 25%, 2.7 hr): 100% | Conversion (ester/acid) ([3]; solvent 25%, 2.7 hr): 35% | EE of S-acid ([4]; 26 hours): 86% | Relative Rate ([4]; 26 hours, buffer = 100): 91

O=S([O-])[O-].[Na+].[Na+] [Na2 SO3, sodium sulfite]
Relative Activity [2, 8]: 95% | Relative Activity ([2]; 4 mg/ml): 101% | Relative Activity ([2]; 8 mg/ml, 5760 min): 110% | Relative Activity ([2]; 16 mg/ml, 5760 min): 111% | Conversion (%) of HPPA-Me to HPPA ([2]; Na2SO3 10 mg, batches as E44): 26% and 20% and 16% and 14% and 13% and 15% | prevention of loss of enzyme activity [2]: Neither sodium sulfite nor cystine was effective

ClC(Cl)=C(Cl)Cl [tetrachloroethylene]
% R ([3]; solvent 25%, 5.3 hr): 83% | Conversion (ester/acid) ([3]; solvent 25%, 5.3 hr): 61% | % R ([3]; solvent 75%, 5.3 hr): 85% | Conversion (ester/acid) ([3]; solvent 75%, 5.3 hr): 58% | EE of S-acid ([4]; 26 hours): 27% | Relative Rate ([4]; 26 hours, buffer = 100): 3 | % Acid ([5]; KPEG 50 mg, as E212): 0% | % ee S-acid ([5]; KPEG, as E212): 0% | % Acid [5, 7]: 1% | % ee S-acid ([5]; KPG, as E212): 0%

ClCC(Cl)Cl [1,1,2 trichloroethane]
% R ([3]; solvent 25%, 43 hr): 79% | Conversion (ester/acid) ([3]; solvent 25%, 43 hr): 29% | Relative Rate ([4]; 16 hour reactions): 0
